# Test results taken from patent US10597388B2, “Pyridazinone herbicides” (FMC CORPORATION, priority 2014, dated 2020).
# How the values were obtained:
# Assay in all cases: Test D controlled growth environment herbicide test, pre- and postemergence
# Assay type in all cases: in vivo
# [1] = tested on: field violet (Viola arvensis)
# Outline: (§1)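 Pre-emergence: seeds sown in silt loam soil were sprayed with compound in a non-phytotoxic solvent mix containing surfactant. Post-emergence: plants at 2 to 18 cm (1- to 4-leaf stage) in peat moss/vermiculite medium got the same formulation. Visual 0–100 rating versus controls after 14 to 21 d.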
# [2] = tested on: barley, winter (winter barley, Hordeum vulgare)
# Outline: as §1
# [3] = tested on: lambsquarters (Chenopodium album)
# Outline: as §1
# kochia (Kochia scoparia) = tested on: kochia (Kochia scoparia)
# Outline: as §1
# [4] = tested on: bluegrass (annual bluegrass, Poa annua)
# Outline: as §1
# [5] = tested on: barley, spring (spring barley, Hordeum vulgare)
# Outline: as §1
# [6] = tested on: canarygrass (Phalaris minor)
# Outline: as §1
# [7] = tested on: radish, wild (wild radish, Raphanus raphanistrum)
# Outline: as §1
# [8] = tested on: field poppy (Papaver rhoeas)
# Outline: as §1
# [9] = tested on: buckwheat, wild (wild buckwheat, Polygonum convolvulus)
# Outline: as §1
# [10] = tested on: windgrass (Apera spica-venti)
# Outline: as §1
# [11] = tested on: galium (catchweed bedstraw, Galium aparine)
# Outline: as §1
# [12] = tested on: pigweed (Amaranthus retroflexus)
# Outline: as §1
# [13] = tested on: chamomile (scentless chamomile, Matricaria inodora)
# Outline: as §1
# [14] = Postemergence, 31 g ai/ha, scale 0 to 100 (0 no effect, 100 complete control)
# [15] = Postemergence, 125 g ai/ha, visual rating on scale 0 (no effect) to 100 (complete control), 14 to 21 d
# [16] = Postemergence, 250 g ai/ha, scale 0 to 100 (0 no effect, 100 complete control)
# [17] = Preemergence, 62 g ai/ha, scale 0 to 100 (0 no effect, 100 complete control)
# [18] = Preemergence, 125 g ai/ha, scale 0 to 100 (0 no effect, 100 complete control)
# [19] = Preemergence, 250 g ai/ha, scale 0 to 100, 0 no effect, 100 complete control
# [20] = postemergence, 62 g ai/ha, scale 0 to 100, 0 no effect, 100 complete control
smiles,measurement,setting,value
Cc1nn(C)c(=O)c(-c2c(C)sc3c(C)cc(Cl)cc23)c1O [Compound 35],Field Violet plant response rating,[1]; [14],65
same,"Plant response rating, Field Violet",[1]; [15],75
same,"Plant response rating, Field Violet",[1]; [16],98
same,"Plant response rating (scale of 0 to 100), Field Violet","[1]; Preemergence, 31 g ai/ha",15
same,"Plant response rating, Field Violet",[1]; [17],75
same,"Plant response rating, Field Violet",[1]; [18],85
same,"Plant response rating, Field Violet",[1]; [19],100
same,"Plant response rating, Field Violet",[1]; [20],75
same,"Plant response rating, Barley, Winter",[2]; [14],0
same,"Plant response rating, Barley, Winter",[2]; [15],0
same,"Plant response rating, Barley, Winter",[2]; [16],15
same,"Plant response rating (scale of 0 to 100), Barley, Winter","[2]; Preemergence, 31 g ai/ha",0
same,"Plant response rating, Barley, Winter",[2]; [17],0
same,"Plant response rating, Barley, Winter",[2]; [18],0
same,"Barley, Winter plant response rating",[2]; [19],0
same,"Plant response rating, Barley, Winter",[2]; [20],0
same,Lambsquarters plant response rating,[3]; [14],75
same,"Plant response rating, Lambsquarters",[3]; [15],98
same,"Plant response rating, Lambsquarters",[3]; [16],98
same,"Plant response rating (scale of 0 to 100), Lambsquarters","[3]; Preemergence, 31 g ai/ha",70
same,"Plant response rating, Lambsquarters",[3]; [17],98
same,"Plant response rating, Lambsquarters",[3]; [18],100
same,"Plant response rating, Lambsquarters",[3]; [19],100
same,"Plant response rating, Lambsquarters",[3]; [20],100
same,Kochia plant response rating,kochia (Kochia scoparia); [14],25
same,"Plant response rating, Kochia",kochia (Kochia scoparia); [15],65
same,"Plant response rating, Kochia",kochia (Kochia scoparia); [16],70
same,"Plant response rating (scale of 0 to 100), Kochia","kochia (Kochia scoparia); Preemergence, 31 g ai/ha",0
same,"Plant response rating, Kochia",kochia (Kochia scoparia); [17],0
same,"Plant response rating, Kochia",kochia (Kochia scoparia); [18],20
same,"Plant response rating, Kochia",kochia (Kochia scoparia); [19],25
same,"Plant response rating, Kochia",kochia (Kochia scoparia); [20],20
same,Bluegrass plant response rating,[4]; [14],35
same,"Plant response rating, Bluegrass",[4]; [15],35
same,"Plant response rating, Bluegrass",[4]; [16],40
same,"Plant response rating (scale of 0 to 100), Bluegrass","[4]; Preemergence, 31 g ai/ha",25
same,"Plant response rating, Bluegrass",[4]; [17],25
same,"Plant response rating, Bluegrass",[4]; [18],35
same,Bluegrass plant response rating,[4]; [19],45
same,"Plant response rating, Bluegrass",[4]; [20],25
same,"Plant response rating, Barley, Spring",[5]; [14],0
same,"Plant response rating, Barley, Spring",[5]; [15],10
same,"Plant response rating, Barley, Spring",[5]; [16],15
same,"Plant response rating (scale of 0 to 100), Barley, Spring","[5]; Preemergence, 31 g ai/ha",0
same,"Plant response rating, Barley, Spring",[5]; [17],0
same,"Plant response rating, Barley, Spring",[5]; [18],0
same,"Barley, Spring plant response rating",[5]; [19],0
same,"Plant response rating, Barley, Spring",[5]; [20],0
same,Canarygrass plant response rating,[6]; [14],20
same,"Plant response rating, Canarygrass",[6]; [15],70
same,"Plant response rating, Canarygrass",[6]; [16],80
same,"Plant response rating (scale of 0 to 100), Canarygrass","[6]; Preemergence, 31 g ai/ha",75
same,"Plant response rating, Canarygrass",[6]; [17],85
same,"Plant response rating, Canarygrass",[6]; [18],95
same,"Plant response rating, Canarygrass",[6]; [19],98
same,"Plant response rating, Canarygrass",[6]; [20],30
same,"Radish, Wild plant response rating",[7]; [14],85
same,"Plant response rating, Radish, Wild",[7]; [15],100
same,"Plant response rating, Radish, Wild",[7]; [16],100
same,"Plant response rating (scale of 0 to 100), Radish, Wild","[7]; Preemergence, 31 g ai/ha",35
same,"Plant response rating, Radish, Wild",[7]; [17],100
same,"Plant response rating, Radish, Wild",[7]; [18],100
same,"Plant response rating, Radish, Wild",[7]; [19],100
same,"Plant response rating, Radish, Wild",[7]; [20],100
same,Field Poppy plant response rating,[8]; [14],100
same,"Plant response rating, Field Poppy",[8]; [15],100
same,"Plant response rating, Field Poppy",[8]; [16],100
same,"Plant response rating (scale of 0 to 100), Field Poppy","[8]; Preemergence, 31 g ai/ha",75
same,"Plant response rating, Field Poppy",[8]; [17],85
same,"Plant response rating, Field Poppy",[8]; [18],100
same,"Plant response rating, Field Poppy",[8]; [19],100
same,"Plant response rating, Field Poppy",[8]; [20],100
same,"Buckwheat, Wild plant response rating",[9]; [14],95
same,"Plant response rating, Buckwheat, Wild",[9]; [15],100
same,"Plant response rating, Buckwheat, Wild",[9]; [16],100
same,"Plant response rating (scale of 0 to 100), Buckwheat, Wild","[9]; Preemergence, 31 g ai/ha",15
same,"Plant response rating, Buckwheat, Wild",[9]; [17],20
same,"Plant response rating, Buckwheat, Wild",[9]; [18],20
same,"Plant response rating, Buckwheat, Wild",[9]; [19],35
same,"Plant response rating, Buckwheat, Wild",[9]; [20],100
same,Windgrass plant response rating,[10]; [14],25
same,"Plant response rating, Windgrass",[10]; [15],70
same,"Plant response rating, Windgrass",[10]; [16],85
same,"Plant response rating (scale of 0 to 100), Windgrass","[10]; Preemergence, 31 g ai/ha",25
same,"Plant response rating, Windgrass",[10]; [17],95
same,"Plant response rating, Windgrass",[10]; [18],100
same,"Plant response rating, Windgrass",[10]; [19],100
same,"Plant response rating, Windgrass",[10]; [20],65
same,Galium plant response rating,[11]; [14],98
same,"Plant response rating, Galium",[11]; [15],95
same,"Plant response rating, Galium",[11]; [16],100
same,"Plant response rating (scale of 0 to 100), Galium","[11]; Preemergence, 31 g ai/ha",80
same,"Plant response rating, Galium",[11]; [17],85
same,"Plant response rating, Galium",[11]; [18],95
same,"Plant response rating, Galium",[11]; [19],100
same,"Plant response rating, Galium",[11]; [20],98
same,Pigweed plant response rating,[12]; [14],80
same,"Plant response rating, Pigweed",[12]; [15],85
same,"Plant response rating, Pigweed",[12]; [16],98
same,"Plant response rating (scale of 0 to 100), Pigweed","[12]; Preemergence, 31 g ai/ha",25
same,"Plant response rating, Pigweed",[12]; [17],95
same,"Plant response rating, Pigweed",[12]; [18],100
same,"Plant response rating, Pigweed",[12]; [19],100
same,"Plant response rating, Pigweed",[12]; [20],80
same,Chamomile plant response rating,[13]; [14],100
same,"Plant response rating, Chamomile",[13]; [15],100
same,"Plant response rating, Chamomile",[13]; [16],100
same,"Plant response rating (scale of 0 to 100), Chamomile","[13]; Preemergence, 31 g ai/ha",100
same,"Plant response rating, Chamomile",[13]; [17],100
same,"Plant response rating, Chamomile",[13]; [18],100
same,"Plant response rating, Chamomile",[13]; [19],100
same,"Plant response rating, Chamomile",[13]; [20],100
